In ChEMBL document CHEMBL1201862, “PubChem BioAssay data set” (2004):
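All cell lines were grown in 96-well plates and treated with compound for 48 hours. Abbreviation: GI50, concentration required for 50% inhibition of growth.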 Calls of active or inactive are those of the source. No stated cut-off is given here; in the data, active = GI50 up to about 1.1 µM and inactive = higher.

Columns and labels:
Experiment in all cases: inhibition of tumour cell growth, NCI panel, 48 h
[1] = tested on: 786-0
[2] = tested on: BT-549
[3] = tested on: CCRF-CEM
[4] = tested on: COLO 205
[5] = tested on: EKVX
[6] = tested on: HOP-62
[7] = tested on: HT-29
[8] = tested on: KM12
[9] = tested on: LOX IMVI
[10] = tested on: MDA-MB-435
[11] = tested on: MOLT-4
[12] = tested on: NCI-H23
[13] = tested on: NCI/ADR-RES
[14] = tested on: OVCAR-3
[15] = tested on: OVCAR-5
[16] = tested on: OVCAR-8
[17] = tested on: RXF 393
[18] = tested on: SR
[19] = tested on: T47D
[20] = tested on: UACC-62

| SMILES | GI50 [1] | GI50 [2] | GI50 [3] | GI50 [4] | GI50 [5] | GI50 [6] | GI50 [7] | GI50 [8] | GI50 [9] | GI50 [10] | GI50 [11] | GI50 [12] | GI50 [13] | GI50 [14] | GI50 [15] | GI50 [16] | GI50 [17] | GI50 [18] | GI50 [19] | GI50 [20] |
| --- | --- | --- | --- | --- | --- | --- | --- | --- | --- | --- | --- | --- | --- | --- | --- | --- | --- | --- | --- | --- |
| N/C(=N/c1ccc(O)cc1)S(=O)O | > 100 µM (inactive) | > 100 µM (inactive) | 89.9 µM (inactive) | > 100 µM (inactive) | > 100 µM (inactive) | > 100 µM (inactive) | > 100 µM (inactive) | > 100 µM (inactive) | > 100 µM (inactive) | > 100 µM (inactive) | > 100 µM (inactive) | > 100 µM (inactive) | > 100 µM (inactive) | > 100 µM (inactive) | > 100 µM (inactive) | > 100 µM (inactive) | > 100 µM (inactive) | > 100 µM (inactive) | > 100 µM (inactive) | > 100 µM (inactive) |
| Nc1nc(Cl)cc(NCC2CC(O)(CO)C2)n1 (stereo not given) | > 100 µM (inactive) | > 100 µM (inactive) | > 100 µM (inactive) | > 100 µM (inactive) | > 100 µM (inactive) | > 100 µM (inactive) | > 100 µM (inactive) | > 100 µM (inactive) | > 100 µM (inactive) | > 100 µM (inactive) | > 100 µM (inactive) | > 100 µM (inactive) | > 100 µM (inactive) | > 100 µM (inactive) | > 100 µM (inactive) | > 100 µM (inactive) | > 100 µM (inactive) | > 10 µM (inactive) | > 100 µM (inactive) | > 100 µM (inactive) |
| O=[N+]([O-])O [NITRIC ACID] | > 100 µM (inactive) | > 100 µM (inactive) | > 100 µM (inactive) | > 100 µM (inactive) | > 100 µM (inactive) | > 100 µM (inactive) | > 100 µM (inactive) | > 100 µM (inactive) | > 100 µM (inactive) | > 100 µM (inactive) | > 100 µM (inactive) | > 100 µM (inactive) | > 100 µM (inactive) | > 100 µM (inactive) | > 100 µM (inactive) | > 100 µM (inactive) | > 100 µM (inactive) | 77.1 µM (inactive) | > 100 µM (inactive) | > 100 µM (inactive) |
| CC(C)(C)c1cc(C(C)(C)C)c2sc(=S)oc2c1O | 7.45 µM (inactive) | 8.51 µM (inactive) | 3.76 µM (inactive) | 14.5 µM (inactive) | 3.85 µM (inactive) | 14.9 µM (inactive) | 14.9 µM (inactive) | 4.79 µM (inactive) | 5.05 µM (inactive) | 8.17 µM (inactive) | 5.2 µM (inactive) | 5.37 µM (inactive) | 9.89 µM (inactive) | 5.14 µM (inactive) | 7.46 µM (inactive) | 6.34 µM (inactive) | 4.69 µM (inactive) | 3.18 µM (inactive) | 5.19 µM (inactive) | 10.4 µM (inactive) |
| CN(C)CCNc1c([N+](=O)[O-])sc2ccc(Cl)cc12 | 12.2 µM (inactive) | 32.3 µM (inactive) | 4.36 µM (inactive) | 8.75 µM (inactive) | 44.7 µM (inactive) | 12.2 µM (inactive) | 5.89 µM (inactive) | > 100 µM (inactive) | 3.49 µM (inactive) | 88.5 µM (inactive) | 2.37 µM (inactive) | 23.2 µM (inactive) | 11.1 µM (inactive) | > 100 µM (inactive) | > 100 µM (inactive) | 17.3 µM (inactive) | 19.1 µM (inactive) | > 100 µM (inactive) | 23.6 µM (inactive) | 14 µM (inactive) |
| CC(=O)N(CCc1ccccc1)C(C#N)c1ccccc1 (stereo not given) | > 100 µM (inactive) | > 100 µM (inactive) | > 100 µM (inactive) | > 100 µM (inactive) | > 100 µM (inactive) | > 100 µM (inactive) | > 100 µM (inactive) | > 100 µM (inactive) | > 100 µM (inactive) | > 100 µM (inactive) | > 100 µM (inactive) | > 100 µM (inactive) | > 100 µM (inactive) | 70.1 µM (inactive) | > 100 µM (inactive) | > 100 µM (inactive) | > 100 µM (inactive) | > 100 µM (inactive) | > 100 µM (inactive) | > 100 µM (inactive) |
| NS(=O)(=O)c1ccc(/N=N/c2c(O)c(C(=O)O)cc3ccccc23)cc1 | > 100 µM (inactive) | > 100 µM (inactive) | > 100 µM (inactive) | > 54.5 µM (inactive) | > 100 µM (inactive) | 99.1 µM (inactive) | > 100 µM (inactive) | > 75.7 µM (inactive) | 82.6 µM (inactive) | 45.4 µM (inactive) | > 100 µM (inactive) | > 100 µM (inactive) | > 100 µM (inactive) | > 100 µM (inactive) | > 100 µM (inactive) | > 100 µM (inactive) | > 100 µM (inactive) | 33.3 µM (inactive) | > 100 µM (inactive) | 37.2 µM (inactive) |
| COc1cccc(/C=N/n2c(Cc3ccc(Cl)cc3)n[nH]c2=O)c1 | 25.1 µM (inactive) | 26.1 µM (inactive) | > 100 µM (inactive) | > 100 µM (inactive) | 29.6 µM (inactive) | 15.4 µM (inactive) | 12.4 µM (inactive) | > 100 µM (inactive) | 25.6 µM (inactive) | > 100 µM (inactive) | > 100 µM (inactive) | 27.9 µM (inactive) | 30.6 µM (inactive) | > 100 µM (inactive) | > 78.7 µM (inactive) | 16.9 µM (inactive) | 2 µM (inactive) | > 76.9 µM (inactive) | 16.1 µM (inactive) | 34.2 µM (inactive) |
| Cc1cn2c(/C=C3/C(=O)Nc4ccccc43)c(C)nc2s1 | 3.82 µM (inactive) | 3.95 µM (inactive) | 1.03 µM (active) | 0.433 µM (active) | 6.11 µM (inactive) | 3.79 µM (inactive) | 0.605 µM (active) | 0.261 µM (active) | 3.46 µM (inactive) | 0.138 µM (active) | 0.581 µM (active) | 4.19 µM (inactive) | 2.39 µM (inactive) | 0.787 µM (active) | 6.55 µM (inactive) | 3.54 µM (inactive) | 2.6 µM (inactive) | 0.507 µM (active) | 0.665 µM (active) | 1.33 µM (inactive) |
| C[n+]1cccc(/C=C/c2ccc3cccc(O)c3n2)c1 | > 100 µM (inactive) | 84.9 µM (inactive) | 45.7 µM (inactive) | > 100 µM (inactive) | > 100 µM (inactive) | 59 µM (inactive) | > 100 µM (inactive) | > 100 µM (inactive) | > 100 µM (inactive) | > 100 µM (inactive) | 54.5 µM (inactive) | 58.2 µM (inactive) | > 100 µM (inactive) | 27 µM (inactive) | > 100 µM (inactive) | 72.3 µM (inactive) | > 100 µM (inactive) | > 100 µM (inactive) | 83.2 µM (inactive) | > 100 µM (inactive) |
| Cc1nc(C)c(N2CCN(S(=O)(=O)N(Cc3ccccc3)Cc3ccccc3)CC2)c(O)n1 | 6.64 µM (inactive) | > 57.4 µM (inactive) | > 100 µM (inactive) | > 100 µM (inactive) | > 60 µM (inactive) | 9.31 µM (inactive) | > 100 µM (inactive) | > 100 µM (inactive) | 43.5 µM (inactive) | > 100 µM (inactive) | > 100 µM (inactive) | 14.3 µM (inactive) | > 61.4 µM (inactive) | 52.8 µM (inactive) | 29.2 µM (inactive) | 4.78 µM (inactive) | 11.2 µM (inactive) | > 100 µM (inactive) | 24.1 µM (inactive) | 5.12 µM (inactive) |
| O=C(c1cc(Cl)cc(Cl)c1)N(Cc1cccnc1)C(=S)N(Cc1cccnc1)C(=O)c1cc(Cl)cc(Cl)c1 | 17.3 µM (inactive) | 29.2 µM (inactive) | 17.1 µM (inactive) | 15.3 µM (inactive) | 87.1 µM (inactive) | 29.9 µM (inactive) | 31.9 µM (inactive) | 24.5 µM (inactive) | 34.1 µM (inactive) | 85.9 µM (inactive) | 38.9 µM (inactive) | 63.1 µM (inactive) | 37.4 µM (inactive) | 21.7 µM (inactive) | 35.6 µM (inactive) | 28.8 µM (inactive) | 34.2 µM (inactive) | 16.1 µM (inactive) | 44.7 µM (inactive) | 45.7 µM (inactive) |
| CC(C)NCC(O)c1cc(OCc2ccccc2)c(OCc2ccccc2)cc1NC(=O)CCC(=O)O (stereo not given) | 7.52 µM (inactive) | 15.8 µM (inactive) | 2.58 µM (inactive) | 2.06 µM (inactive) | 12.4 µM (inactive) | 13.7 µM (inactive) | 3.75 µM (inactive) | 4.28 µM (inactive) | 1.57 µM (inactive) | 5.05 µM (inactive) | 3.64 µM (inactive) | 13.2 µM (inactive) | 12.9 µM (inactive) | 13.6 µM (inactive) | 16.7 µM (inactive) | 7.66 µM (inactive) | 5.36 µM (inactive) | 2.34 µM (inactive) | 10 µM (inactive) | 3.25 µM (inactive) |
| CCOC(=O)C(=CNc1ccc(NC2=NCC(C)S2)cc1)C(=O)OCC (stereo not given) | 26.1 µM (inactive) | 15.2 µM (inactive) | 0.0908 µM (active) | 35.6 µM (inactive) | 37.3 µM (inactive) | 50 µM (inactive) | 23.6 µM (inactive) | 16.6 µM (inactive) | 30.1 µM (inactive) | 20.2 µM (inactive) | 3.15 µM (inactive) | 28.1 µM (inactive) | 23.1 µM (inactive) | 18.2 µM (inactive) | > 100 µM (inactive) | 24.5 µM (inactive) | 30.5 µM (inactive) | 22.3 µM (inactive) | 24.8 µM (inactive) | 11 µM (inactive) |
